Measured values published in ChEMBL document CHEMBL1909046, “DrugMatrix in vitro pharmacology data”.

Tests used:
Progesterone receptor = molecular target: T1, Progesterone receptor (Bos taurus, UniProt Q690N0); assay: DRUGMATRIX: Progesterone radioligand binding (ligand: [3H] R-5020); type: tissue-based, Uterus; conditions: Not Active = under 50% inhibition at 10 µM
T1 sequence (Q690N0 whole entry): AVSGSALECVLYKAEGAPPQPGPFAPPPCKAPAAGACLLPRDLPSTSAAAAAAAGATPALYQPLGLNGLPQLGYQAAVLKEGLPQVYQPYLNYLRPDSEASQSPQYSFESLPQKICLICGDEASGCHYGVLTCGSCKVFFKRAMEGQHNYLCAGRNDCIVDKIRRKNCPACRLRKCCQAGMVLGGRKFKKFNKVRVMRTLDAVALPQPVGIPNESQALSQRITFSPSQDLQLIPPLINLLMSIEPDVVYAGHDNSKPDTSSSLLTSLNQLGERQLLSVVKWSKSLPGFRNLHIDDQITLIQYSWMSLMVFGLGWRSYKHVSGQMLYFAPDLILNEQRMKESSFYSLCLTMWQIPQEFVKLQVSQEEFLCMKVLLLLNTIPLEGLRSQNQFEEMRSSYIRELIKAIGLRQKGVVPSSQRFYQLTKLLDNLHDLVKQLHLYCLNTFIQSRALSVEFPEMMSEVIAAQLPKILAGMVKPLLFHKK

[1] = DRUGMATRIX: Glutamate, Kainate radioligand binding (ligand: [3H] Kainic acid); type: cell membranes, Rattus norvegicus, Wistar, Brain, Membrane; conditions: Not Active = under 50% inhibition at 10 µM
Leukotriene C4 synthase = molecular target: T2, Leukotriene C4 synthase (Cavia porcellus, UniProt A6XA80); type: tissue-based, Lung;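 further: enzyme inhibition assay of leukotriene C4 synthase, using LTA4 as the substrate; in other assays of this panel Not Active means under 50% inhibition at 10 µM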
T2 sequence (A6XA80 whole entry): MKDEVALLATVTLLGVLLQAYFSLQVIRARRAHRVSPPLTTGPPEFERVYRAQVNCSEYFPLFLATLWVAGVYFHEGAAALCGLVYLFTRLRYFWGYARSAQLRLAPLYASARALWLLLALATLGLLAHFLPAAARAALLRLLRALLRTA

Carbonic anhydrase 2 = Carbonic anhydrase 2 (Homo sapiens, UniProt P00918); assay: DRUGMATRIX: Carbonic Anhydrase II enzyme inhibition (substrate: 4-Nitrophenyl acetate (4-NPA)); type: tissue-based; conditions: erythrocyte; Not Active = under 50% inhibition at 10 µM
Melanocortin receptor 3 = Melanocortin receptor 3 (Homo sapiens, UniProt P41968); type: cell membranes, HEK293, Membrane; further: in other assays of this panel Not Active means under 50% inhibition at 10 µM
Chain of Melanocortin receptor 3 (P41968 whole entry): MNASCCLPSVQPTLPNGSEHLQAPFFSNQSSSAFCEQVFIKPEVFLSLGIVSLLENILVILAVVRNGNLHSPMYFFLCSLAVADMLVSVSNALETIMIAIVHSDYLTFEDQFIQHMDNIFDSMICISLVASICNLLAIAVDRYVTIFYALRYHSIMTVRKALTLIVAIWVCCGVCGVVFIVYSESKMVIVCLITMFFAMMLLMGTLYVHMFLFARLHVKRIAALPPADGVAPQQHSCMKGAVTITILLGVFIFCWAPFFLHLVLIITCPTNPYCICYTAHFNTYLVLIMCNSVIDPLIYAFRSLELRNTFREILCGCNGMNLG

[2] = molecular target: T3, Polyunsaturated fatty acid lipoxygenase ALOX15 (Oryctolagus cuniculus, UniProt P12530); assay: biochemical; type: tissue-based, Reticulocytes;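 further: inhibition of 15-lipoxygenase enzyme activity measured with linoleic acid as the substrate; in other assays of this panel Not Active means under 50% inhibition at 10 µM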
T3 sequence (P12530 whole entry): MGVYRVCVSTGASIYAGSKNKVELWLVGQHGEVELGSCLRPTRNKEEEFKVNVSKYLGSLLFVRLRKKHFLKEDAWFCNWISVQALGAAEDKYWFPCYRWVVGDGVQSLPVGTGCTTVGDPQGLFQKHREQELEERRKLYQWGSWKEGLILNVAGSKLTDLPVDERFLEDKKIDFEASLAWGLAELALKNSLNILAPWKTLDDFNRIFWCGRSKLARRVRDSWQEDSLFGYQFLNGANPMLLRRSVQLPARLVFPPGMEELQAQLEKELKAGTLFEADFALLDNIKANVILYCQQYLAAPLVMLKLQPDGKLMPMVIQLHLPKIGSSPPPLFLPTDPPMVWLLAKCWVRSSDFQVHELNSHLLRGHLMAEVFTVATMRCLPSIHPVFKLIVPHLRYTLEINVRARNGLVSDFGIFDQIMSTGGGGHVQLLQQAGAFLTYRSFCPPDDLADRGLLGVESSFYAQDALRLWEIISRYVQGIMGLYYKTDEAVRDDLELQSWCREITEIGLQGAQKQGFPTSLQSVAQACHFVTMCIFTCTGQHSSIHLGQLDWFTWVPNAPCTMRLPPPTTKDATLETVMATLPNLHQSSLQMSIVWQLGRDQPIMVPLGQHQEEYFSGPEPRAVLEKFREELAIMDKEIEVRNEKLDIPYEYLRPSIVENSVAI

[3] = molecular target: Beta-1 adrenergic receptor (Homo sapiens, UniProt P08588); assay: DRUGMATRIX: Adrenergic beta1 radioligand binding (ligand: [125I] Cyanopindolol); type: cell membranes, CHO-K1, Membrane; conditions: cho-k1; Not Active = under 50% inhibition at 10 µM
Chain of Beta-1 adrenergic receptor (P08588 whole entry): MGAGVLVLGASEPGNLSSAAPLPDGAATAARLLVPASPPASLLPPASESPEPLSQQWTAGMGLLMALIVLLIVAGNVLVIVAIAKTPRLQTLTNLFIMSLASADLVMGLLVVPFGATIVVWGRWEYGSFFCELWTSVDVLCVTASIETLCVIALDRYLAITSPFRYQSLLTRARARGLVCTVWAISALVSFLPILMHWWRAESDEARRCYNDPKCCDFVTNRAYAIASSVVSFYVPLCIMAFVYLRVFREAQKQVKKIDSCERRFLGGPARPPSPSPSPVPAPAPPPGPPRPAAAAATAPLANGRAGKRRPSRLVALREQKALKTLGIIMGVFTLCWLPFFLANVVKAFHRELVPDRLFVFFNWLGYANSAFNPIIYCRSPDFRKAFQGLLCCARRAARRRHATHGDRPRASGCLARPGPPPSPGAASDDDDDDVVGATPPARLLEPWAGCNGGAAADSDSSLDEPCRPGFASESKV

| Compound | IC50 (Progesterone receptor) | IC50 [1] | Ki [1] | IC50 (Leukotriene C4 synthase) | IC50 (Carbonic anhydrase 2) | IC50 (Melanocortin receptor 3; hek293) | IC50 ([2]; reticulocytes) | IC50 [3] | Ki (Progesterone receptor) | Ki (Leukotriene C4 synthase) | Ki (Carbonic anhydrase 2) | Ki (Melanocortin receptor 3; hek293) | Ki ([2]; reticulocytes) | Ki [3] | IC50 (Melanocortin receptor 3; read-out: IC50) [µM] | Ki (Melanocortin receptor 3; read-out: Ki) [µM] | IC50 ([2]; read-out: IC50) [µM] |
| --- | --- | --- | --- | --- | --- | --- | --- | --- | --- | --- | --- | --- | --- | --- | --- | --- | --- |
| CO[C@H]1/C=C/O[C@@]2(C)Oc3c(C)c(O)c4c(O)c(c(/C=N/N5CCN(C6CCCC6)CC5)c(O)c4c3C2=O)NC(=O)/C(C)=C\C=C\[C@H](C)[C@H](O)[C@@H](C)[C@@H](O)[C@@H](C)[C@H](OC(C)=O)[C@@H]1C [RIFAPENTINE] | Not Active | Not Active | Not Active | Not Active | Not Active | Not Active | Not Active | Not Active | – | – | – | – | – | – | – | – | – |
| CCCCOc1cc(CC2CNC(=O)N2)ccc1OC (stereo not drawn) [RO-201724] | Not Active | Not Active | Not Active | Not Active | Not Active | Not Active | Not Active | Not Active | – | – | – | – | – | – | – | – | – |
| CC[C@@H](C(=O)[C@@H](C)[C@@H](O)[C@H](C)[C@@H]1O[C@@H]([C@@H](CC)C(=O)O)CC[C@@H]1C)[C@H]1O[C@]2(C=C[C@@H](O)[C@]3(CC[C@@](C)([C@H]4CC[C@](O)(CC)[C@H](C)O4)O3)O2)[C@H](C)C[C@@H]1C [SALINOMYCIN] | Not Active | Not Active | Not Active | Not Active | Not Active | Not Active | Not Active | Not Active | – | – | – | – | – | – | – | – | – |
| CCCCNc1ccc(C(=O)OCCN(C)C)cc1 [TETRACAINE] | Not Active | Not Active | Not Active | Not Active | Not Active | Not Active | Not Active | Not Active | – | – | – | – | – | – | – | – | – |
| CCN(CC)CCNC(=O)c1cc(S(C)(=O)=O)ccc1OC [TIAPRIDE] | Not Active | Not Active | Not Active | Not Active | Not Active | Not Active | Not Active | Not Active | – | – | – | – | – | – | – | – | – |
| MANGANESE CHLORIDE ANHYDROUS | Not Active | Not Active | Not Active | Not Active | Not Active | Not Active | Not Active | Not Active | Not Active | Not Active | Not Active | Not Active | Not Active | Not Active | – | – | – |
| O.O.O.O.O.O.[Cl-].[Cl-].[Sr+2] [STRONTIUM CHLORIDE HEXAHYDRATE] | Not Active | Not Active | Not Active | Not Active | Not Active | Not Active | Not Active | Not Active | – | – | – | – | – | – | – | – | – |
| CNC1(c2ccccc2Cl)CCCCC1=O (stereo not drawn) [KETAMINE] | Not Active | Not Active | Not Active | Not Active | Not Active | Not Active | Not Active | Not Active | – | – | – | – | – | – | – | – | – |
| CCN(CC)CC(=O)Nc1c(C)cccc1C [LIDOCAINE] | Not Active | Not Active | Not Active | Not Active | Not Active | Not Active | Not Active | Not Active | – | – | – | – | – | – | – | – | – |
| Nc1cc(N2CCCCC2)nc(N)[n+]1[O-] [MINOXIDIL] | Not Active | Not Active | Not Active | Not Active | Not Active | Not Active | Not Active | Not Active | – | – | – | – | – | – | – | – | – |
| COc1c2occc2cc2ccc(=O)oc12 [METHOXSALEN] | Not Active | Not Active | Not Active | Not Active | Not Active | Not Active | Not Active | Not Active | – | – | – | – | – | – | – | – | – |
| Cc1c(C)c2c(c(C)c1O)CCC(C)(CN1CCN(c3cc(N4CCCC4)nc(N4CCCC4)n3)CC1)O2 (stereo not drawn) | Not Active | Not Active | Not Active | Not Active | Not Active | – | – | Not Active | – | – | – | – | – | – | 17.3 | 15.1 | 5.67 |
